Key:
Assay type in all cases: biochemical
Rat rIgA (poly-rIgA) = experiment: SEC determination of poly- and mono-rIgA content of rat rIgA after treatment; conditions: for disassembly of poly-rIgA into monomers (SEC): rat rIgA, reducing agents added, FIG. 3 A-C
Experimental: (§1) The overall complex size of IgA aggregates was determined either by size-exclusion chromatography (SEC: Superdex 200 Increase 10/300 by GL Cytiva), or by SDS-PAGE. For evaluating the involvement of intermolecular disulfide connectivity in IgA complexes, IgA samples were treated with either reducing agents, such as DTT, TCEP or reduced glutathione (Sigma), or interventional drugs, such as cysteamine (Sigma), WR-1065 (Sigma) and N-Acetyl-L-cysteine (VWR Chemicals) in phosphate-buffered saline (PBS) pH7.4. Before running on SEC, samples were treated with the drugs at indicated concentrations at 37° C. for one hour.
In the meantime, the SEC column was also equilibrated with PBS supplemented with the reducing agent at the same concentration. For running SEC, 100 μL of the recombinant IgA (concentration varies between 1 mg/mL and 8 mg/mL) or purified native human IgA1 (˜1 mg/mL) was loaded to the column and UV absorption was recorded following elution. […] The ratios between poly-rIgA and mono-rIgA were calculated as between the corresponding areas under the curve (AUC), and the treatment effect of the thiol agents was judged by the reduction of the poly-rIgA level with a compensatory increase of the mono-rIgA content.
To further investigate specific cysteine residue(s) involved in IgA complexes, expression vectors were constructed to produce recombinant IgA (rIgA) Fc segments of rat and human sequences (FIG. 2, part A) as discussed above. Rat IgA analogs were expressed in BL21 DE3 strain of E. coil and recombinant protein were purified from the bacterial lysate using Histrap HP columns (GE Healthcare) by running fast protein liquid chromatography (FPLC). Human recombinant IgA mimetics were produced from human embryo kidney (HEK293) cells by transfection of the expressing plasmids. Recombinant IgA proteins expressed by the cells were secreted into the culture medium, and they were subsequently purified by Histrap HP columns by FPLC using standard procedures. […] Rat rIgA was produced from bacterial expression as discussed above.
Cysteamine (Cy), an aminothiol that can react with cysteine, is both a natural metabolite produced in mammalian cells and a clinical drug used for treatment of cystinosis. In cystinosis, cysteamine reduces the disulfide bond in cystine, which is the oxidated dimer of amino acid cysteine (FIG. 4, part A). In the context of cysteine residues in proteins, endogenous cysteamine as well as the therapeutic drug forms mixed disulfides with susceptible cysteine sulfhydryl groups in a process called cysteamination (FIG. 4, part B). It was sought to determine whether cysteamine could reduce Cys471-disulfides to disaggregate poly-IgA. Rat rIgA (SEQ ID NO.4) was treated with various concentrations of cysteamine for one hour at 37° C. in phosphate buffered saline at neutral pH and the protein complexes were analyzed by SEC. The SEC column (model: Superdex 200 Increase 10/300 GL by Cytiva) was preequilibrated with the same buffer supplemented with the same concentration of cysteamine.

[1] = system: natural IgA1 assembly (two heavy chains and two light chains connected via disulfide bonds); experiment: Ex vivo study: integrity of natural IgA assembly under thiol/reducing agents
Experimental: as §1
(§2) Proteins in sample buffer (Bio-Rad Laboratories, Hercules, CA, USA) with or without TCEP (for reducing or nonreducing condition, respectively) were resolved by 4-12% SDS-PAGE (Bio-Rad Laboratories). IgA bands were subsequently visualized either by staining with GelCode Blue (Thermo Fisher Scientific), or by Western blotting on PVDF membrane. For Western blotting, 5% non-fat milk was used in blocking for one hour at room temperature. The membrane was then incubated with mouse anti-Histag antibody (Thermo Scientific), or HRP-conjugated goat anti-rat IgA α-chain antibody (Cat. ab97185, Abcam, UK), or goat anti-human IgA HRP antibody (Cat: 2050-05, SouthernBiotech) for detecting rat or human IgA (Fc), respectively. The membrane was developed using the Clarity™ ECL substrate (Bio-Rad Laboratories, CA, USA).

[2] = molecular target: T1, poly-IgA complexes from IgA nephropathy patients' plasma (Homo sapiens, UniProt P01876); experiment: SDS-PAGE / anti-IgA Western blotting of poly-IgA from IgA nephropathy patients' plasma with or without reducing agent; conditions: reducing condition
T1 construct: human IgA1 whole molecule was purified from pooled plasma of IgA nephropathy patients; from tissue
T1 sequence (P01876 1-353 isoform P01876-1, one chain of several): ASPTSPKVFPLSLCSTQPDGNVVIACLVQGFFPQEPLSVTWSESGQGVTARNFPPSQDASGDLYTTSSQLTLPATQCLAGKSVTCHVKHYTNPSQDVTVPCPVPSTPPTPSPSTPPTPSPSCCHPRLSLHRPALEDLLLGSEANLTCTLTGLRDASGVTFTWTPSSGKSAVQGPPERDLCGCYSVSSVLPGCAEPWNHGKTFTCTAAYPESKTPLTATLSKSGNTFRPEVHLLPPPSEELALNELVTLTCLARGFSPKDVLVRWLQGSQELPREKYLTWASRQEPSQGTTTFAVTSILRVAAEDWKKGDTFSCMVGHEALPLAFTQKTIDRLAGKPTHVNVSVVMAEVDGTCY
Text: (§3) IgA1 from IgA nephropathy patient sera was purified by Jacalin (Thermo Scientific, USA)-directed affinity chromatography. Poly-IgA1 contents were further enriched via running Superdex 200 Increase gel filtration molecular sieve (GE Biosciences) and collecting high-molecular weight fractions from an AKTA protein purification system (GE Biosciences). Human serum from healthy donors was purchased from Sigma-Aldrich and total IgA1 was also purified by running Jacalin-directed chromatography. Purified total IgA1 was used for injecting mice.
Proteins in sample buffer (Bio-Rad Laboratories, Hercules, CA, USA) with or without TCEP (for reducing or nonreducing condition, respectively) were resolved by 4-12% SDS-PAGE (Bio-Rad Laboratories). IgA bands were subsequently visualized either by staining with GelCode Blue (Thermo Fisher Scientific), or by Western blotting on PVDF membrane. […]
In this Example, it was sought to isolate high molecular weight IgA complexes, such as poly-IgA, from plasma of IgA nephropathy patients. […] By running SDS-PAGE of the poly-IgA fraction under both reducing and nonreducing conditions, it was determined that the molecular complexes of IgA were connected through disulfide bridges (FIG. 1, part B). […] IgA1 complexes were extracted from individual patients by SEC and analyzed the contents by SDS-PAGE.

human IgA1 (poly-IgA1) = molecular target: T2, human IgA1 (poly-IgA1) (Homo sapiens, UniProt P01876); experiment: SEC of native human IgA1 treated ex vivo; conditions: total IgA1 from human sera, FIG. 5 E-F
T2 construct: human IgA1 whole molecule was purified from pooled plasma of IgA nephropathy patients; from tissue
T2 sequence (P01876 1-353 isoform P01876-1): as the sequence (P01876 1-353 isoform P01876-1, one chain of several) above
Text: as §3, §1
In the meantime, the SEC column was also equilibrated with PBS supplemented with the reducing agent at the same concentration. For running SEC, 100 μL of the recombinant IgA (concentration varies between 1 mg/mL and 8 mg/mL) or purified native human IgA1 (˜1 mg/mL) was loaded to the column and UV absorption was recorded following elution. Recombinant IgA typically formed two elution peaks: a minor peak of ˜800 kDa poly-rIgA followed by a major peak of ˜170 kDa of monomeric rIgA. The ratios between poly-rIgA and mono-rIgA were calculated as between the corresponding areas under the curve (AUC), and the treatment effect of the thiol agents was judged by the reduction of the poly-rIgA level with a compensatory increase of the mono-rIgA content.
In addition, human IgA1 whole molecule was purified from pooled plasma of IgA nephropathy patients and subjected the sample to different concentrations of cysteamine (FIG. 5, part C). […]

rat poly-rIgA = experiment: Nonreducing SDS-PAGE analysis of rat poly-rIgA after pretreatment; conditions: cysteamine 0 to 10 mM; TCEP 10 mM; untreated poly-IgA >250 kDa
Experimental: as §2
To further ascertain the mechanism-of-action of cysteamine in targeting disulfides, nonreducing SDS-PAGE analysis was performed of rat poly-rIgA (FIG. 5, part D). The samples were pretreated with 0 to 10 mM cysteamine, or 10 mM TCEP as positive control. As expected, poly-IgA appeared as >250 kDa bands on SDS-PAGE. Dose-dependent response of poly-rIgA to cysteamine was evident, with majority of the protein running at ˜64 kDa of disaggregated monomers.

SMILES | disassembly of poly-rIgA into monomers (SEC) (Rat rIgA (poly-rIgA)) | disruption of natural IgA assembly / normal pairing of IgA heavy chains [1] | poly-IgA level (SEC) (human IgA1 (poly-IgA1)) | other results
O[C@@H](CS)[C@@H](O)CS (racemic) [DDT, 1,4-Dithiothreitol] | poly-rIgA disassembled into monomers | inadvertently dissociated normal pairing of IgA heavy chains |  | 
OCCS [2-mercaptoethanol] |  |  |  | size of IgA1 band after reduction of ~600 kDa poly-IgA1 (Western blot) ([2]; eight individual IgA nephropathy patients): ~65 kDa
CC(=O)N[C@@H](CS)C(=O)O [N-acetylcysteine, N-acetyl-L-cysteine] |  | did not cause unwanted disruption of natural IgA1 assembly | lowered poly-IgA levels in a dose-dependent manner | 
O=C(O)CCP(CCC(=O)O)CCC(=O)O [TCEP, tris(2-carboxyethyl)phosphine] | poly-rIgA disassembled into monomers | inadvertently dissociated normal pairing of IgA heavy chains |  | molecular weight of protein band after pretreatment (nonreducing SDS-PAGE) (rat poly-rIgA): ~32 kDa; size of IgA band after reduction of ~600 kDa poly-IgA (Western blot) ([2]; pooled plasma of IgA nephropathy patients (n=10)): ~65 KDa
NCCCNCCS [WR-1065, 2-[(3-aminopropyl)amino]ethanethiol] |  | did not cause unwanted disruption of natural IgA1 assembly | reduction of poly-IgA levels | 
N[C@@H](CCC(=O)N[C@@H](CS)C(=O)NCC(=O)O)C(=O)O [glutathione] |  |  |  | effect on poly-IgA levels at comparable concentrations (Rat rIgA (poly-rIgA); compared with cysteamine, WR-1065, N-acetylcysteine): relatively modest effects on poly-IgA levels
